Numbered stars: 1 amine (or outer) side, 2 acyl side, 3 side chain; on linkers, the order of the positions; unused ones are H or OH. Square brackets hold non-standard residues; d marks the D form. Peptide text beside a SMILES is read from it. * marks the point of attachment. X4 = O=C([C@@H]1Cc2ccc(OP(=O)(O)O)cc2CN1[*:1])[*:2]; pY = N[C@@H](Cc1ccc(OP(=O)(O)O)cc1)C(=O)O; X7 = O=C(Cc1c[nH]c2ccc(OP(=O)(O)O)cc12)*; aThr = C[C@H](O)[C@H](N)C(=O)O
The molecules below were run against Signal transducer and activator of transcription 3 (Homo sapiens, UniProt P40763) (assay: Inhibition of Stat3 by fluorescence polarization assay).
Signal transducer and activator of transcription 3, sequence (P40763 whole entry): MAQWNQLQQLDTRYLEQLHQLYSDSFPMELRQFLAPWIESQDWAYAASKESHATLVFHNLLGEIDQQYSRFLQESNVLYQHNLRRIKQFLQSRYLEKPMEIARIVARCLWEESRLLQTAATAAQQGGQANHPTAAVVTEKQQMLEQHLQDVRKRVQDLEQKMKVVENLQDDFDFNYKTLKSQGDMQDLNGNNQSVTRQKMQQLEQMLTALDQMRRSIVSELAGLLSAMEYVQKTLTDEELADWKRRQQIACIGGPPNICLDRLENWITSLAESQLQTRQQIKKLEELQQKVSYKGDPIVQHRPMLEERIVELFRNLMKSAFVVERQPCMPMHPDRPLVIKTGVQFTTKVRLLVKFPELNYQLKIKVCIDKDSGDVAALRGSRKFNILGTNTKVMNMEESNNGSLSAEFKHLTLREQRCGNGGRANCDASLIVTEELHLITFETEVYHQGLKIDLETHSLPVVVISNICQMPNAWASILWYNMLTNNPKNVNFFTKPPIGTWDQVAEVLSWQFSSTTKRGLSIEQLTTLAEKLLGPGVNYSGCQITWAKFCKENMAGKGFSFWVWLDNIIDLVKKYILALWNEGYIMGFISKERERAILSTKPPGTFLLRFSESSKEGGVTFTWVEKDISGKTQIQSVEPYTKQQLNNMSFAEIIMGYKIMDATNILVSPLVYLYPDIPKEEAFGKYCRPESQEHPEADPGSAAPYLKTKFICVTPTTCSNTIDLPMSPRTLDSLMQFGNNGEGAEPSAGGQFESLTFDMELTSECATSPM

Compound | IC50
CC(=O)N[C@@H](Cc1ccc(OP(=O)(O)O)cc1)C(=O)N[C@@H](CC(C)C)C(=O)N1CCC[C@H]1C(=O)N[C@@H](CCC(N)=O)C(=O)N[C@H](C(N)=O)[C@H](C)O (Ac-[pY]LPQ[aThr]-NH2) | 739 nM
CC(=O)N1Cc2cc(OP(=O)(O)O)ccc2C[C@H]1C(=O)N[C@@H](CC(C)C)C(=O)N1CCC[C@H]1C(=O)N[C@@H](CCC(N)=O)C(=O)N[C@H](C(N)=O)[C@@H](C)O (Ac-[X4]LPQT-NH2) | > 100000 nM
C[S+]([O-])CC[C@H](NC(=O)[C@@H]1Cc2cccc3c2N1C(=O)[C@@H](NC(=O)/C=C/c1ccc(OP(=O)(O)O)cc1)CC3)C(N)=O (some centres not stated) | 7600 nM
CNC(=O)[C@H](CCC(N)=O)NC(=O)[C@@H]1Cc2cccc3c2N1C(=O)[C@@H](NC(=O)/C=C/c1ccc(OP(=O)(O)O)cc1)CC3 | 269 nM
CCCC[C@H](NC(=O)[C@@H]1Cc2cccc3c2N1C(=O)[C@@H](NC(=O)/C=C/c1ccc(OP(=O)(O)O)cc1)CC3)C(N)=O | 19200 nM
NC(=O)CC[C@H](NC(=O)[C@H]1CC[C@H]2CC[C@H](NC(=O)/C=C/c3ccc(OP(=O)(O)O)cc3)C(=O)N21)C(=O)NCc1ccccc1 | 59800 nM
NC(=O)CC[C@H](NC(=O)[C@@H]1CC[C@@H]2CC[C@H](NC(=O)/C=C/c3ccc(OP(=O)(O)O)cc3)C(=O)N21)C(=O)NCc1ccccc1 | 604 nM
NC(=O)CC[C@H](NC(=O)[C@@H]1Cc2cccc3c2N1C(=O)[C@@H](NC(=O)/C=C/c1ccc(OP(=O)(O)O)cc1)CC3)C(=O)NCc1ccccc1 | 162 nM
CC(C)C[C@H](NC(=O)Cc1c[nH]c2ccc(OP(=O)(O)O)cc12)C(=O)N1CCC[C@H]1C(=O)N[C@@H](CCC(N)=O)C(=O)N[C@H](C(N)=O)[C@@H](C)O (X7-LPQT-NH2) | > 100000 nM
NC(=O)CC[C@H](NC(=O)[C@@H]1Cc2cccc3c2N1C(=O)[C@@H](NC(=O)/C=C/c1ccc(OP(=O)(O)O)cc1)C=C3)C(=O)NCc1ccccc1 | 195 nM
COC(=O)[C@H](CCC(N)=O)NC(=O)[C@@H]1Cc2cccc3c2N1C(=O)[C@@H](NC(=O)/C=C/c1ccc(OP(=O)(O)O)cc1)CC3 | 141 nM
NC(=O)CC[C@H](NC(=O)[C@@H]1Cc2cccc3c2N1C(=O)[C@@H](NC(=O)c1cc2cc(OP(=O)(O)O)ccc2[nH]1)CC3)C(=O)NCc1ccccc1 | 190 nM
O=C(O)CCCNC(=O)[C@@H]1Cc2cccc3c2N1C(=O)[C@@H](NC(=O)/C=C/c1ccc(OP(=O)(O)O)cc1)CC3 | 815 nM
NC(=O)CC[C@H](NC(=O)[C@@H]1CC[C@H]2CC[C@H](NC(=O)/C=C/c3ccc(OP(=O)(O)O)cc3)C(=O)N21)C(=O)NCc1ccccc1 | 45700 nM
CS(=O)(=O)CC[C@H](NC(=O)[C@@H]1Cc2cccc3c2N1C(=O)[C@@H](NC(=O)/C=C/c1ccc(OP(=O)(O)O)cc1)CC3)C(N)=O | 7030 nM
NC(=O)CC[C@H](NC(=O)[C@@H]1Cc2cccc3c2N1C(=O)[C@@H](NC(=O)/C=C/c1ccc(OP(=O)(O)O)cc1)CC3)C(N)=O | 233 nM
NC(=O)C1CCN(C(=O)[C@@H]2Cc3cccc4c3N2C(=O)[C@@H](NC(=O)/C=C/c2ccc(OP(=O)(O)O)cc2)CC4)C1 (some centres not stated) | 595 nM
C[C@H](NC(=O)[C@@H]1Cc2cccc3c2N1C(=O)[C@@H](NC(=O)/C=C/c1ccc(OP(=O)(O)O)cc1)CC3)C(N)=O | 25100 nM
CC(C)C[C@H](NC(=O)/C=C/c1ccc(OP(=O)(O)O)cc1)C(=O)N1CCC[C@H]1C(=O)N[C@@H](CCC(N)=O)C(=O)NCc1ccccc1 | 138 nM
CC(C)NC(=O)[C@H](CCC(N)=O)NC(=O)[C@@H]1Cc2cccc3c2N1C(=O)[C@@H](NC(=O)/C=C/c1ccc(OP(=O)(O)O)cc1)CC3 | 305 nM
NC(=O)[C@@H]1Cc2cccc3c2N1C(=O)[C@@H](NC(=O)/C=C/c1ccc(OP(=O)(O)O)cc1)CC3 | 35600 nM
NC(=O)CC[C@H](NC(=O)[C@@H]1Cc2cccc3c2N1C(=O)[C@@H](NC(=O)/C=C/c1ccc(OP(=O)(O)O)cc1)CC3)C(=O)O | 359 nM
